Reference: patent publication US12540150B1, “Fluorogenic probe using a Mislow-Evans rearrangement for real-time imaging of hydrogen peroxide” (University of Pittsburgh—Of the Commonwealth System of …, priority 2020, dated 2026)
“And” between values parts separate entries of the source, which are not always exact repeats. Equal entries are not always repeated.

What was measured:
[1] = Selectivity of 1 against various ROS and RNS (FIG. 14B); conditions: O2^·−, ^1O2, ·OH, ClO^−, ONOO^−, tBuOOH, NO3^−, NO2, NO·
Experimental: (§1) Following the concentration dependence studies, the selectivity of 1 was assessed against O2^·−, ^1O2, ·OH, ClO^−, ONOO^−, 'BuOOH, NO3^−, NO2, and NO·. […] The production of some of these ROS required H2O2 as a reagent or generated H2O2 as a product, for which we carefully performed control experiments as detailed below. For example, a solution of 100 μM 1 in ethanol (20 μL) was added to 5:95 methanol/50 mM phosphate pH 7 buffer (140 μL). […] A control containing 100 μM 1 in ethanol (20 μL), 5:95 methanol/50 mM phosphate pH 7 buffer (160 μL), and 700 mM H2O2 (20 μL) was also generated. The solutions were allowed to incubate at 25° C. for 15 min prior to measuring fluorescence. […] Therefore, 1 is selective for H2O2 over O2^·−.

[2] = Fluorescence response of 1 with increasing concentrations of H2O2; conditions: 0-159 μM H2O2 solutions, phosphate pH 7 buffer, 25° C., 20 min
Experimental: To verify that 1 could quantitatively measure H2O2 concentrations, 1 was incubated with increasing concentrations of H2O2. A solution of 0-159 μM H2O2 in 5:95 MeCN/50 mM phosphate pH 7 buffer (180 μL) was added to the wells of a black 96-well plate. A solution of 100 μM 1 in MeCN (20 μL) was then added to the wells. The solutions were allowed to incubate at 25° C. for 20 min before the fluorescence was measured.

RAW cells = assay: Imaging of endogenous H2O2 upon ionomycin stimulation in RAW cells; assay type: cell-based
From the text: After detecting exogenously added H2O2 in cells, the focus shifted to more biologically relevant, endogenous H2O2. It was attempted to monitor endogenous H2O2 production upon stimulation with ionomycin in RAW cells. […] In contrast, with probe 1, a significant response was observed within 30 s after the addition of ionomycin relative to the baseline fluorescence (FIG. 24B-C) and peaked at 48 s.

zebrafish = assay: Zebrafish tail wound-healing model imaging of H2O2; assay type: in vivo; conditions: three-day post-fertilization zebrafish embryos, 1 mM 1 for 2 h
From the text: H2O2 has been recognized as a critical signaling molecule for the recruitment of immune cells for wound regeneration. To date, only genetically encoded protein-based fluorescent probes have been able to illuminate the spatiotemporal dynamics of H2O2 for wound healing models in zebrafish. It was hypothesized that our method might be rapid enough to match the protein-based imaging in vivo. As a platform to test this hypothesis, 1 was applied to image a zebrafish tail wound-healing model.
Three-day post-fertilization zebrafish embryos were removed from their chorion and allowed to swim in 1 mM 1 for 2 h (0.1% v/v DMSO), leading to effective dye loading. Following this, the fish were anesthetized and mounted in agar. The tail fins were clipped with a razor blade.
Fluorescence images were obtained every 60 s for 60 min using an inverted Nikon TiE fluorescent microscope (Nikon Inc., Melville, NY) equipped with a 20× 0.75 NA lens and NIS Elements Software. The sample was excited using the 470 nm line of a Lumencor diode-pumped light engine (SpectraX, Lumencor Inc., Beaverton OR), and the fluorescence signals were detected using an ET-GFP filter set (Chroma Technology Corp) and ORCA-Flash 4.0 sCMOS camera (HAMAMATSU Corporation, Bridgewater, NJ).

[3] = Selectivity of 1: reaction with tBuOOH; conditions: for Fluorescence Intensity: pH 7, 25° C., 15 min
Experimental: 'BuOOH was also tested for reactivity with 1. A solution of 5:95 MeCN/50 mM phosphate pH 7 buffer (160 μL) was added to the wells of a black 96-well plate. 10 μM 1 in DMSO (20 μL) was added to each well. 0 mM H2O2 in water (20 μL) or 0, 10, or 100 μM tBuOOH in DMSO (20 μL) were then added to the wells.

[4] = Selectivity of 1: reaction with O2^·−; conditions: for Fluorescence Intensity: 15 min
Experimental: as §1

[5] = Selectivity of 1: reaction with NO2^−; conditions: for Fluorescence: change over first 15 min
Experimental: It was then sought to determine whether RNS would react with 1 to produce fluorescence. The probe 1 was first exposed to NO2^− at various concentrations. NaNO2 (97.0 mg) was dissolved in ultrapure water (2.00 mL). […] A solution of 100 μM 1 in ethanol (20 μL) was added to 5:95 methanol/50 mM phosphate pH 7 buffer (160 μL). The NaNO2 or H2O2 solutions (20 μL) were added to the solution containing 1 and the fluorescence intensity was measured immediately and again after incubation at 25° C. for 15 min. The fluorescence change over the first 15 min was reported for NO2^− in FIG. 20 and Table 11.

[6] = Response of probe 1 to H2O2 at various pHs; conditions: for Fluorescence: 23° C., 20 min
Experimental: The probe's response to H2O2 in the pH 4-7.3 range was studied to determine whether this technology would work in acidic and neutral intracellular environments, such as lysosomes (pH 5), Golgi apparatus (pH 6.4-6.8), mitochondria (pH 6.9-8.0), and cytoplasm (pH 7.1-7.6). A solution of 50 mM phosphate pH 7.3 buffer was treated with 1.0 N HCl to adjust the pH to 7.0, 6.5, 5.9, 5.4, 4.5, or 4.1. The concentration of the resulting buffers was adjusted with water to 25 mM phosphate buffer. Solutions of 25 mM phosphate pH 7.3, 7.0, 6.5, 5.9, 5.4, 4.5, or 4.1 buffer ([…]) and 100 μM probe 1 in MeOH were treated with 100 μM, 10 μM or 0 μM H2O2 in water. The solutions were allowed to incubate at 23° C. for 20 min prior to measuring the fluorescence.

Oc1ccc2c(c1)Oc1cc(O/C=C/C[Se]c3ccccc3)ccc1[C@@]21OCc2ccccc21 [Compound 1, (S,E)-6′-((3-(Phenylselanyl)prop-1-en-1-yl)oxy)-3H-spiro[isobenzofuran-1,9′-xanthen]-3′-ol]
reaction with other ROS and RNS relative to H2O2 [1]: little reaction was observed | fluorescence dependence on H2O2 concentration [2]: increased linearly with H2O2 concentration | time of fluorescence peak after the addition of ionomycin (RAW cells): 48 s | time to significant response after the addition of ionomycin (RAW cells; 0.5 μM 1, ionomycin 10 μM): ≤ 30 s | time of maximum fluorescence after tail snipping (zebrafish): 10 to 20 min | fluorescence with tBuOOH [3]: did not produce fluorescence even at 10 μM | Fluorescence Intensity ([3]; 10 μM ^tBuOOH): 31,650 and 28,922 and 33,363 | Fluorescence Intensity ([3]; H2O2): 277,013 and 296,506 and 250,145 | Fluorescence Intensity ([3]; no ROS): 34,525 and 36,401 and 39,836 | reaction with O2^·− [4]: did not react | Fluorescence Intensity ([4]; KO2 + 10 U/mL catalase, pH 7, 25° C.): 104,768 and 72,151 and 98,514 | Fluorescence Intensity ([4]; KO2 + 10^4 U/mL catalase, pH 7, 25° C.): 63,553 and 41,950 and 67,009 | Fluorescence Intensity ([4]; KO2, phosphate pH 7, 25° C.): 106,099 and 92,938 and 99,300 | reaction with NO2^− [5]: did not react | Fluorescence ([5]; 0 μM NO2^− or H2O2, pH 7, 25° C.): 24,359 and 26,870 and 26,226 | Fluorescence ([5]; 0.1 μM H2O2): 58,172 and 52,104 and 52,249 | Fluorescence ([5]; 0.1 μM NO2^−): 31,075 and 36,429 and 27,504 | Fluorescence ([5]; 1 μM H2O2): 266,770 and 242,313 and 222,834 | Fluorescence ([5]; 1 μM NO2^−): 26,768 and 31,470 and 33,004 | pH dependence of fluorescence signals with H2O2 ([6]; pH 4-7.3 range): higher when the pH was above 5.4 | Fluorescence ([6]; pH 4.10, 0 μM H2O2): 28,470 and 25,037 and 28,661 | Fluorescence ([6]; pH 4.10, 1 μM H2O2): 35,884 and 30,492 and 30,471 | Fluorescence ([6]; pH 4.10, 10 μM H2O2): 51,632 and 54,097 and 52,472 | Fluorescence ([6]; pH 4.50, 0 μM H2O2): 29,770 and 29,064 and 29,069 | Fluorescence ([6]; pH 4.50, 1 μM H2O2): 40,599 and 31,790 and 33,283 | Fluorescence ([6]; pH 4.50, 10 μM H2O2): 55,577 and 54,961 and 56,315 | Fluorescence ([6]; pH 5.40, 0 μM H2O2): 56,192 and 56,334 and 52,671 | Fluorescence ([6]; pH 5.40, 1 μM H2O2): 61,365 and 63,294 and 60,943 | Fluorescence ([6]; pH 5.40, 10 μM H2O2): 106,516 and 107,311 and 103,354 | Fluorescence ([6]; pH 5.90, 0 μM H2O2): 87,499 and 89,708 and 90,424 | Fluorescence ([6]; pH 5.90, 1 μM H2O2): 113,703 and 111,368 and 107,545 | Fluorescence ([6]; pH 5.90, 10 μM H2O2): 167,836 and 187,633 and 154,515 | Fluorescence ([6]; pH 6.50, 0 μM H2O2): 155,151 and 183,747 and 149,421 | Fluorescence ([6]; pH 6.50, 1 μM H2O2): 203,661 and 188,050 and 184,986 | Fluorescence ([6]; pH 6.50, 10 μM H2O2): 332,896 and 341,948 and 335,544 | Fluorescence ([6]; pH 7.00, 0 μM H2O2): 199,101 and 207,136 and 187,676 | Fluorescence ([6]; pH 7.00, 1 μM H2O2): 247,464 and 221,499 and 229,530 | Fluorescence ([6]; pH 7.00, 10 μM H2O2): 389,464 and 369,467 and 390,006 | Fluorescence ([6]; pH 7.30, 0 μM H2O2): 189,898 and 183,424 and 169,054 | Fluorescence ([6]; pH 7.30, 1 μM H2O2): 228,368 and 208,913 and 186,665 | Fluorescence ([6]; pH 7.30, 10 μM H2O2): 373,555 and 388,584 and 401,912
